# Reference: US10111433B2 (priority 2014, dated 2018)
# Where two headings read alike, the source gives them in different places.
# Columns and labels:
# Phytophthora capsici = assay: Activity against Phytophthora capsici, growth inhibition in nutrient broth (microtiter plate); type: cell-based; conditions: Phytophthora capsici, read-out: % disease control; for inhibition of growth at 6.25e-05 ppm: A-1.2 0.0000625 ppm; for inhibition of growth at 0.0005 ppm: A-1.2 0.0005000 ppm; for inhibition of growth at 3.9e-06 ppm: A-1.2 0.0000039 ppm; for inhibition of growth at 7.8e-06 ppm: A-1.2 0.0000078 ppm; for inhibition of growth at 1.56e-05 ppm: A-1.2 0.0000156 ppm; for inhibition of growth at 3.13e-05 ppm: A-1.2 0.0000313 ppm
# Experimental: Conidia of the fungus from cryogenic storage are directly mixed into nutrient broth (PDB potato dextrose broth). After placing a (DMSO) solution of test compound into a microtiter plate (96-well format), the nutrient broth containing the fungal spores is added. […] Table B4 to B21 gives the mean percent control relative to untreated.
# Phytophthora infestans [1] = type: in vivo; conditions: Table B3; A-1.2 15 gai/ha; leaf area, four days after final application
# Plasmopara viticola = assay: Field activity against Plasmopara viticola on grapevine; type: in vivo; conditions: Table B2; A-1.2 22.5 gai/ha; bunches, ten days after sixth application
# Source text: Merlot grapevines were cultivated in rows with 1 m between plants within the row, and 2 m spaces between rows. Treatment plots were defined with an 8 m^2 vertical area. The trial consisted of three replicates of the treatment list, with the positions of each treatment plot randomised within the replicate.
# Test compounds were formulated and applied to the relevant treatment plots, using a backpack sprayer with a flat fan nozzle. The first application was made when the majority of plants were at growth stage BBCH 15 and following applications at 10-14 day intervals through to growth stage BBCH 79.
# The first symptoms of the target pathogen Plasmopara viticola were observed between the second and third applications. Plants outside the trial area were inoculated to increase the disease pressure, but infection processes within the trial plots were natural. […]
# Ten days after the sixth application, at growth stage BBCH 79, the fruit was assessed for infection by Plasmopara viticola. 50 bunches per plot were assessed, the scores given in table B2 are percent disease control relative to untreated, based on the mean percentage of bunches showing symptoms of infection across all three replicates of a treatment.
# Phytophthora infestans [2] = type: in vivo
compound,measurement,setting,value
"O=C(N[C@@H]1CCCc2ccccc21)c1cc(C2CCN(C(=O)Cn3nc(C(F)F)cc3C(F)F)CC2)ccn1 [Compound A-1.2, 1′-[2-(3,5-bis-difluoromethyl-pyrazol-1-yl)-acetyl]-1′,2′,3′,4′,5′,6′-hexahydro-[4,4′]bipyridinyl-2-carboxylic acid (R)-(1,2,3,4-tetrahydronaphthalen-1-yl)-amide]",inhibition of growth at 6.25e-05 ppm,Phytophthora capsici; Table B4,0%
same,inhibition of growth at 0.000125 ppm,"Phytophthora capsici; Table B4, A-1.2 0.0001250 ppm",32%
same,inhibition of growth at 0.00025 ppm,"Phytophthora capsici; Table B4, A-1.2 0.0002500 ppm",64%
same,inhibition of growth at 0.0005 ppm,Phytophthora capsici; Table B4,76%
same,inhibition of growth at 2e-06 ppm,"Phytophthora capsici; Table B5, A-1.2 0.0000020 ppm",0%
same,inhibition of growth at 3.9e-06 ppm,Phytophthora capsici; Table B5,0%
same,inhibition of growth at 7.8e-06 ppm,Phytophthora capsici; Table B5,0%
same,inhibition of growth at 1.56e-05 ppm,Phytophthora capsici; Table B5,0%
same,inhibition of growth at 3.13e-05 ppm,Phytophthora capsici; Table B5,0%
same,inhibition of growth at 6.25e-05 ppm,Phytophthora capsici; Table B5,47%
same,inhibition of growth at 6.25e-05 ppm,Phytophthora capsici; Table B6,0%
same,inhibition of growth at 0.000125 ppm,"Phytophthora capsici; Table B6, A-1.2 0.0001250 ppm",40%
same,inhibition of growth at 0.00025 ppm,"Phytophthora capsici; Table B6, A-1.2 0.0002500 ppm",78%
same,inhibition of growth at 3.9e-06 ppm,Phytophthora capsici; Table B7,0%
same,inhibition of growth at 7.8e-06 ppm,Phytophthora capsici; Table B7,0%
same,inhibition of growth at 1.56e-05 ppm,Phytophthora capsici; Table B7,0%
same,inhibition of growth at 3.13e-05 ppm,Phytophthora capsici; Table B7,0%
same,inhibition of growth at 6.25e-05 ppm,Phytophthora capsici; Table B7,38%
same,inhibition of growth at 0.000125 ppm,"Phytophthora capsici; Table B7, A-1.2 0.0001250 ppm",42%
same,inhibition of growth at 6.25e-05 ppm,Phytophthora capsici; Table B8,3%
same,inhibition of growth at 0.000125 ppm,"Phytophthora capsici; Table B8, A-1.2 0.0001250 ppm",56%
same,inhibition of growth at 0.00025 ppm,"Phytophthora capsici; Table B8, A-1.2 0.0002500 ppm",69%
same,inhibition of growth at 6.25e-05 ppm,Phytophthora capsici; Table B9,0%
same,inhibition of growth at 0.000125 ppm,"Phytophthora capsici; Table B9, A-1.2 0.0001250 ppm",47%
same,inhibition of growth at 6.25e-05 ppm,Phytophthora capsici; Table B10,12%
same,inhibition of growth at 0.000125 ppm,"Phytophthora capsici; Table B10, A-1.2 0.0001250 ppm",62%
same,inhibition of growth at 6.25e-05 ppm,Phytophthora capsici; Table B11,0%
same,inhibition of growth at 0.000125 ppm,"Phytophthora capsici; Table B11, A-1.2 0.0001250 ppm",55%
same,inhibition of growth at 0.00025 ppm,"Phytophthora capsici; Table B11, A-1.2 0.0002500 ppm",82%
same,inhibition of growth at 3.13e-05 ppm,Phytophthora capsici; Table B12,0%
same,inhibition of growth at 6.25e-05 ppm,Phytophthora capsici; Table B12,0%
same,inhibition of growth at 0.000125 ppm,"Phytophthora capsici; Table B12, A-1.2 0.0001250 ppm",57%
same,inhibition of growth at 0.00025 ppm,"Phytophthora capsici; Table B12, A-1.2 0.0002500 ppm",81%
same,inhibition of growth at 0.000125 ppm,"Phytophthora capsici; Table B13, A-1.2 0.0001250 ppm",46%
same,inhibition of growth at 0.00025 ppm,"Phytophthora capsici; Table B13, A-1.2 0.0002500 ppm",69%
same,inhibition of growth at 0.0005 ppm,Phytophthora capsici; Table B13,84%
same,inhibition of growth at 1.56e-05 ppm,Phytophthora capsici; Table B14,0%
same,inhibition of growth at 3.13e-05 ppm,Phytophthora capsici; Table B14,0%
same,inhibition of growth at 6.25e-05 ppm,Phytophthora capsici; Table B14,0%
same,inhibition of growth at 1.56e-05 ppm,Phytophthora capsici; Table B15,0%
same,inhibition of growth at 3.13e-05 ppm,Phytophthora capsici; Table B15,0%
same,inhibition of growth at 6.25e-05 ppm,Phytophthora capsici; Table B15,0%
same,inhibition of growth at 0.000125 ppm,"Phytophthora capsici; Table B15, A-1.2 0.0001250 ppm",71%
same,inhibition of growth at 0.000125 ppm,"Phytophthora capsici; Table B16, A-1.2 0.0001250 ppm",54%
same,inhibition of growth at 6.25e-05 ppm,Phytophthora capsici; Table B17,0%
same,inhibition of growth at 0.000125 ppm,"Phytophthora capsici; Table B17, A-1.2 0.0001250 ppm",67%
same,inhibition of growth at 0.00025 ppm,"Phytophthora capsici; Table B17, A-1.2 0.0002500 ppm",79%
same,inhibition of growth at 0.0005 ppm,Phytophthora capsici; Table B17,82%
same,inhibition of growth at 7.8e-06 ppm,Phytophthora capsici; Table B18,0%
same,inhibition of growth at 1.56e-05 ppm,Phytophthora capsici; Table B18,0%
same,inhibition of growth at 3.13e-05 ppm,Phytophthora capsici; Table B18,0%
same,inhibition of growth at 6.25e-05 ppm,Phytophthora capsici; Table B18,0%
same,inhibition of growth at 0.000125 ppm,"Phytophthora capsici; Table B18, A-1.2 0.0001250 ppm",46%
same,inhibition of growth at 1.56e-05 ppm,Phytophthora capsici; Table B19,0%
same,inhibition of growth at 3.13e-05 ppm,Phytophthora capsici; Table B19,0%
same,inhibition of growth at 6.25e-05 ppm,Phytophthora capsici; Table B19,0%
same,inhibition of growth at 0.000125 ppm,"Phytophthora capsici; Table B19, A-1.2 0.0001250 ppm",38%
same,inhibition of growth at 0.00025 ppm,"Phytophthora capsici; Table B19, A-1.2 0.0002500 ppm",81%
same,inhibition of growth at 6.25e-05 ppm,Phytophthora capsici; Table B20,66%
same,inhibition of growth at 0.000125 ppm,"Phytophthora capsici; Table B20, A-1.2 0.0001250 ppm",83%
same,inhibition of growth at 6.3e-05 ppm,"Phytophthora capsici; Table B21, A-1.2 0.000063 ppm",0%
same,inhibition of growth at 0.000125 ppm,"Phytophthora capsici; Table B21, A-1.2 0.000125 ppm",69%
same,inhibition of growth at 0.00025 ppm,"Phytophthora capsici; Table B21, A-1.2 0.000250 ppm",78%
same,% disease control relative to untreated,Phytophthora infestans [1],64.8%
same,% disease control relative to untreated,Plasmopara viticola,87.3%
same,% disease control,"Phytophthora infestans [2]; Table B1.1, A-1.2 0.02 ppm",0%
same,% disease control,"Phytophthora infestans [2]; Table B1.1, A-1.2 0.06 ppm",14%
same,% disease control,"Phytophthora infestans [2]; Table B1.2, A-1.2 0.06 ppm",14%
same,% disease control,"Phytophthora infestans [2]; Table B1.3, A-1.2 0.06 ppm",14%
